In the supplement of paper PMC10627819:

What was measured:
B. subtilis 168 [1] = assay: fitness (endpoint OD595 vs no drug) (fraction); higher = more growth
Procedure, shortened: (§1)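 Fitness was defined as the optical density at the transition into stationary phase relative to the robust mean of no-drug control wells. Values were capped at 1. Cultures were started at OD595 0.01 in 384-well plates (30 µl, or 55 µl for S. pneumoniae) in TSB, LB Lennox or CY at 37 °C. OD595 was recorded every 30 min over 14 h, with the first reading subtracted as background.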

S. pneumoniae D39V [2] = assay: as above
Procedure, shortened: as §1

S. aureus Newman = assay: Bliss interaction score (quartile over a dose matrix) (fitness difference); higher = more antagonism (negative = synergy)
Procedure, shortened: (§2)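 Fitness was defined as normalised growth: OD595 at the start of stationary phase divided by the plate's robust no-drug mean and capped at 1. Single-drug fitness was inferred from combination measurements. The Bliss score is observed fitness minus the product of the single-drug values, summarised by quartiles across technical, biological and donor/recipient replicates.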

B. subtilis 168 [3] = assay: as above
Procedure, shortened: as §2

S. pneumoniae D39V [4] = assay: as above
Procedure, shortened: as §2

S. aureus DSM 20231 = assay: as above
Procedure, shortened: as §2
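Throughout, for Bliss interaction score (quartile over a dose matrix): first quartile when negative (synergy) and third quartile when positive (antagonism).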

CC(=O)NC[C@H]1CN(c2ccc(N3CCOCC3)c(F)c2)C(=O)O1 [Linezolid] + CN(C)c1cc(NC(=O)CNC(C)(C)C)c(O)c2c1C[C@H]1C[C@H]3[C@H](N(C)C)C(O)=C(C(N)=O)C(=O)[C@@]3(O)C(O)=C1C2=O [Tigecycline]
fitness, B. subtilis 168 [1], one replicate
Settings | partner 0.039 µg/mL | partner 0.078 µg/mL | partner 0.125 µg/mL | partner 0.156 µg/mL | partner 0.25 µg/mL | partner 0.5 µg/mL
first compound 0.0625 µg/mL | 0.872 | 0.848 | – | 0.896 | – | –
first compound 0.125 µg/mL | – | – | ≥ 1 | – | 0.871 | 0.909
first compound 0.25 µg/mL | – | – | 0.906 | – | 0.839 | 0.782
first compound 0.5 µg/mL | – | – | 0.214 | – | 0.0983 | 0.111

Settings | fitness
B. subtilis 168 [1], first compound 0.125 µg/mL, partner 0.039 µg/mL | 0.542
B. subtilis 168 [1], first compound 0.125 µg/mL, partner 0.078 µg/mL | 0.537
B. subtilis 168 [1], first compound 0.125 µg/mL, partner 0.156 µg/mL | 0.543
B. subtilis 168 [1], first compound 0.25 µg/mL, partner 0.078 µg/mL | 0.0754
B. subtilis 168 [1], first compound 0.25 µg/mL, partner 0.156 µg/mL | 0.0704
B. subtilis 168 [1], first compound 0.5 µg/mL, partner 0.039 µg/mL | 0.0624
B. subtilis 168 [1], first compound 0.5 µg/mL, partner 0.078 µg/mL | 0.0638
B. subtilis 168 [1], first compound 0.5 µg/mL, partner 0.156 µg/mL | 0.0364
S. pneumoniae D39V [2], first compound 0.105 µg/mL, partner 0.65 µg/mL | 0.829
S. pneumoniae D39V [2], first compound 0.105 µg/mL, partner 1.3 µg/mL | 0.785
S. pneumoniae D39V [2], first compound 0.105 µg/mL, partner 2.6 µg/mL | 0.801
S. pneumoniae D39V [2], first compound 0.2 µg/mL, partner 0.65 µg/mL | 0.712
S. pneumoniae D39V [2], first compound 0.2 µg/mL, partner 1.3 µg/mL | 0.694
S. pneumoniae D39V [2], first compound 0.2 µg/mL, partner 2.6 µg/mL | 0.692
S. pneumoniae D39V [2], first compound 0.21 µg/mL, partner 0.65 µg/mL | 0.718
S. pneumoniae D39V [2], first compound 0.21 µg/mL, partner 1.3 µg/mL | 0.71
S. pneumoniae D39V [2], first compound 0.21 µg/mL, partner 2.6 µg/mL | 0.66
S. pneumoniae D39V [2], first compound 0.4 µg/mL, partner 0.65 µg/mL | 0.588
S. pneumoniae D39V [2], first compound 0.4 µg/mL, partner 1.3 µg/mL | 0.582
S. pneumoniae D39V [2], first compound 0.4 µg/mL, partner 2.6 µg/mL | 0.552
S. pneumoniae D39V [2], first compound 0.42 µg/mL, partner 0.65 µg/mL | 0.393
S. pneumoniae D39V [2], first compound 0.42 µg/mL, partner 1.3 µg/mL | 0.366
S. pneumoniae D39V [2], first compound 0.42 µg/mL, partner 2.6 µg/mL | 0.323
S. pneumoniae D39V [2], first compound 0.8 µg/mL, partner 0.65 µg/mL | 0.252
S. pneumoniae D39V [2], first compound 0.8 µg/mL, partner 1.3 µg/mL | 0.273
S. pneumoniae D39V [2], first compound 0.8 µg/mL, partner 2.6 µg/mL | 0.275

Settings | Bliss interaction score
B. subtilis 168 [3] | 0.11
S. aureus DSM 20231 | -0.0817
S. aureus Newman | -0.0561
S. pneumoniae D39V [4] | -0.158

CC(=O)NC[C@H]1CN(c2ccc(N3CCOCC3)c(F)c2)C(=O)O1 [Linezolid] + CN[C@@H]1[C@H](O[C@H]2[C@H](O[C@H]3[C@H](O)[C@@H](O)[C@H](N=C(N)N)[C@@H](O)[C@@H]3N=C(N)N)O[C@@H](C)[C@]2(O)C=O)O[C@@H](CO)[C@H](O)[C@H]1O [Streptomycin]
fitness, one replicate
Settings | partner 2 µg/mL | partner 4 µg/mL | partner 8 µg/mL | partner 16 µg/mL
B. subtilis 168 [1], first compound 0.0625 µg/mL | 0.938 | 0.556 | 0.0308 | –
S. pneumoniae D39V [2], first compound 0.2 µg/mL | 0.826 | – | – | 0.584
S. pneumoniae D39V [2], first compound 0.4 µg/mL | 0.659 | – | – | 0.41
S. pneumoniae D39V [2], first compound 0.8 µg/mL | 0.292 | – | – | 0.163

fitness
Settings | partner 2 µg/mL | partner 4 µg/mL | partner 8 µg/mL
B. subtilis 168 [1], first compound 0.125 µg/mL | 0.543 | 0.454 | 0.0968
B. subtilis 168 [1], first compound 0.25 µg/mL | 0.142 | 0.0931 | 0.0559
B. subtilis 168 [1], first compound 0.5 µg/mL | 0.0384 | 0.0468 | 0.0218
S. pneumoniae D39V [2], first compound 0.105 µg/mL | 0.763 | 0.752 | 0.803
S. pneumoniae D39V [2], first compound 0.2 µg/mL | – | 0.781 | 0.684
S. pneumoniae D39V [2], first compound 0.21 µg/mL | 0.655 | 0.683 | 0.719
S. pneumoniae D39V [2], first compound 0.4 µg/mL | – | 0.625 | 0.56
S. pneumoniae D39V [2], first compound 0.42 µg/mL | 0.376 | 0.337 | 0.307
S. pneumoniae D39V [2], first compound 0.8 µg/mL | – | 0.283 | 0.233

Settings | Bliss interaction score
B. subtilis 168 [3] | 0.0492
S. aureus DSM 20231 | -0.0536
S. aureus Newman | -0.0504
S. pneumoniae D39V [4] | -0.112

CO[C@H]1/C=C/O[C@@]2(C)Oc3c(C)c(O)c4c(O)c(c(/C=N/N5CCN(C)CC5)c(O)c4c3C2=O)NC(=O)/C(C)=C\C=C\[C@H](C)[C@H](O)[C@@H](C)[C@@H](O)[C@@H](C)[C@H](OC(C)=O)[C@@H]1C [Rifampicin] + CN[C@@H]1[C@H](O[C@H]2[C@H](O[C@H]3[C@H](O)[C@@H](O)[C@H](N=C(N)N)[C@@H](O)[C@@H]3N=C(N)N)O[C@@H](C)[C@]2(O)C=O)O[C@@H](CO)[C@H](O)[C@H]1O [Streptomycin]
S. pneumoniae D39V [2], one replicate
Settings | fitness
first compound 0.025 µg/mL, partner 2 µg/mL | 0.804
first compound 0.025 µg/mL, partner 4 µg/mL | 0.823
first compound 0.025 µg/mL, partner 8 µg/mL | 0.725
first compound 0.05 µg/mL, partner 16 µg/mL | 0.272
first compound 0.1 µg/mL, partner 16 µg/mL | 0.215
first compound 0.2 µg/mL, partner 16 µg/mL | 0.137

fitness, S. pneumoniae D39V [2]
Settings | partner 2 µg/mL | partner 4 µg/mL | partner 8 µg/mL
first compound 0.1 µg/mL | – | 0.292 | 0.304
first compound 0.2 µg/mL | 0.0493 | 0.0964 | 0.185

Settings | Bliss interaction score
B. subtilis 168 [3] | 0.184
S. aureus DSM 20231 | -0.0315
S. aureus Newman | -0.0179
S. pneumoniae D39V [4] | -0.121

CO[C@H]1/C=C/O[C@@]2(C)Oc3c(C)c(O)c4c(O)c(c(/C=N/N5CCN(C)CC5)c(O)c4c3C2=O)NC(=O)/C(C)=C\C=C\[C@H](C)[C@H](O)[C@@H](C)[C@@H](O)[C@@H](C)[C@H](OC(C)=O)[C@@H]1C [Rifampicin] + CN[C@H](CC(C)C)C(=O)N[C@H]1C(=O)N[C@@H](CC(N)=O)C(=O)N[C@H]2C(=O)N[C@H]3C(=O)N[C@H](C(=O)N[C@H](C(=O)O)c4cc(O)cc(O)c4-c4cc3ccc4O)[C@H](O)c3ccc(c(Cl)c3)Oc3cc2cc(c3O[C@@H]2O[C@H](CO)[C@@H](O)[C@H](O)[C@H]2O[C@H]2C[C@](C)(N)[C@H](O)[C@H](C)O2)Oc2ccc(cc2Cl)[C@H]1O [Vancomycin]
fitness, S. pneumoniae D39V [2], one replicate
Settings | partner 0.125 µg/mL | partner 0.25 µg/mL | partner 0.5 µg/mL
first compound 0.025 µg/mL | 0.903 | 0.823 | 0.267
first compound 0.2 µg/mL | – | 0 | 0

fitness, S. pneumoniae D39V [2]
Settings | partner 0.03125 µg/mL | partner 0.0625 µg/mL | partner 0.125 µg/mL | partner 0.25 µg/mL | partner 0.5 µg/mL
first compound 0.05 µg/mL | 0.886 | 0.846 | – | 0.707 | 0.299
first compound 0.1 µg/mL | 0.537 | 0.476 | – | – | –
first compound 0.2 µg/mL | 0.162 | 0.161 | 0.0937 | – | –

Settings | Bliss interaction score
B. subtilis 168 [3] | 0.029
S. aureus DSM 20231 | -0.0199
S. aureus Newman | 0.0383
S. pneumoniae D39V [4] | 0.135

CO[C@H]1/C=C/O[C@@]2(C)Oc3c(C)c(O)c4c(O)c(c(/C=N/N5CCN(C)CC5)c(O)c4c3C2=O)NC(=O)/C(C)=C\C=C\[C@H](C)[C@H](O)[C@@H](C)[C@@H](O)[C@@H](C)[C@H](OC(C)=O)[C@@H]1C [Rifampicin] + Cc1cc(NS(=O)(=O)c2ccc(N)cc2)no1 [Sulfamethoxazol]
S. pneumoniae D39V [2], first compound 0.025 µg/mL, one replicate
Settings | fitness
partner 1 µg/mL | 0.837
partner 2 µg/mL | 0.831
partner 4 µg/mL | 0.828

fitness, S. pneumoniae D39V [2]
Settings | partner 1 µg/mL | partner 2 µg/mL | partner 4 µg/mL
first compound 0.05 µg/mL | 0.933 | 0.93 | 0.853
first compound 0.2 µg/mL | 0.0772 | 0.0834 | 0.104

Settings | Bliss interaction score
B. subtilis 168 [3] | -0.052
S. aureus DSM 20231 | -0.0278
S. aureus Newman | -0.0257
S. pneumoniae D39V [4] | 0.0639

CO[C@H]1/C=C/O[C@@]2(C)Oc3c(C)c(O)c4c(O)c(c(/C=N/N5CCN(C)CC5)c(O)c4c3C2=O)NC(=O)/C(C)=C\C=C\[C@H](C)[C@H](O)[C@@H](C)[C@@H](O)[C@@H](C)[C@H](OC(C)=O)[C@@H]1C [Rifampicin] + Cn1nnc(-c2ccc(-c3ccc(N4C[C@H](CO)OC4=O)cc3F)cn2)n1 [Tedizolid]
fitness, S. pneumoniae D39V [2], one replicate
Settings | partner 0.125 µg/mL | partner 0.25 µg/mL | partner 0.5 µg/mL
first compound 0.025 µg/mL | 0.832 | 0.726 | 0.254
first compound 0.2 µg/mL | – | 0 | 0

fitness, S. pneumoniae D39V [2]
Settings | partner 0.03125 µg/mL | partner 0.0625 µg/mL | partner 0.125 µg/mL | partner 0.25 µg/mL | partner 0.5 µg/mL
first compound 0.05 µg/mL | 0.98 | 0.97 | 0.907 | 0.591 | 0.21
first compound 0.1 µg/mL | 0.743 | 0.79 | – | 0.343 | 0.181
first compound 0.2 µg/mL | 0.197 | 0.233 | 0.122 | – | –

Settings | Bliss interaction score
B. subtilis 168 [3] | -0.0782
S. aureus DSM 20231 | 0.0203
S. aureus Newman | -0.0238
S. pneumoniae D39V [4] | 0.133
